Results reported in PMC11508334, “In Vitro Evaluation of New 5-Nitroindazolin-3-one Derivatives as Promising Agents against Trypanosoma cruzi” (International Journal of Molecular Sciences, 2024).

Assays:
[1] = Cyclic voltammetry, reduction of nitro group; format: physicochemical; conditions: for −EpaIII: anodic peak potential of couple IIIc/IIIa; for −EpaIII / −EpcIII / −E1/2: given with inverted sign, vs. Ag/AgCl electrode in DMSO; for −EpcIII: cathodic peak potential of couple IIIc/IIIa; for Ipa/Ipc: current ratio RNO2/RNO2•−, couple IIIc/IIIa, DMSO; for −E1/2: half-wave potential of couple IIIc/IIIa
Experimental: Cyclic Voltammetry (CV) was carried out using a Metrohm Autolab instrument model PGSTAT204, using dimethyl sulfoxide (DMSO) as the solvent (1 mM solutions), tetrabutylammonium perchlorate (0.1 M TBAP) as the supporting electrolyte, a hanging drop mercury electrode (HDME) as the working electrode, Ag/AgCl (3M KCl) as the reference electrode, and a graphite rod as the counter electrode. All measurements were performed after bubbling with nitrogen (N2) for 10 min.
Using Nicholson’s procedure, the Ipa/Ipc values (RNO2/RNO2^•−) were measured from each cyclic voltammogram with a scan rate between 0.1 and 2.5 V/s.

[2] = tested on: RAW 264.7 cells; assay: Plasma membrane permeability (SYTOX Green) of RAW 264.7 cells; format: cell-based, murine
[3] = tested on: Dm28c trypomastigotes; assay: Trypomastigote viability study (MTT); format: cell-based, Trypanosoma cruzi; conditions: for SI Trypomastigote: Selectivity Index IC50 macrophages RAW 264.7/IC50 trypomastigotes Dm28c; for IC50: Trypanosoma cruzi, T. cruzi Dm28c trypomastigotes, 24 h, MTT
Experimental: Vero cells (ATCC CCL-81) were infected with Dm28c trypomastigotes at a 1:3 (cell: parasite) ratio. T. cruzi trypomastigotes were initially obtained from primary cultures of peritoneal macrophage from chagasic mice. […] Vero cell cultures were then infected with trypomastigotes and incubated at 37 °C in humidified air and 5% CO2 for 5–7 days. After that time, the culture medium was collected and centrifuged at 500× g for 5 min. The trypomastigote-containing pellet was re-suspended in RPMI 1640 supplemented with inactivated FBS and penicillin–streptomycin at a final 1 × 10^7 parasites/mL density. Trypomastigote viability assays were performed using the MTT reduction method as described previously. Then, 1 × 10^7 parasites/mL was incubated in RPMI 1640 with inactivated FBS at 37 °C for 24 h with or without the studied compounds.

[4] = tested on: T. cruzi epimastigote stage (Dm28c strain); assay: Epimastigotes viability study (MTT); format: cell-based, Trypanosoma cruzi; conditions: for SI Epimastigote: Selectivity Index IC50 macrophages RAW 264.7/IC50 epimastigotes Dm28c; for IC50: Trypanosoma cruzi, T. cruzi Dm28c epimastigotes, 24 h, MTT
Experimental: The trypanocidal activity was evaluated against the T. cruzi epimastigote stage (Dm28c strain). It was measured through the MTT assay using 0.22 mg/mL phenazine methosulfate (as an electron carrier). T. cruzi epimastigote from the author's collection (Programa de Farmacología Molecular y Clínica, Facultad de Medicina, Universidad de Chile, Santiago, Chile) were grown at 28 °C in liver infusion tryptase (LIT) medium, as reported earlier, but replacing blood with 4 μM hemin. […] fetal bovine serum (FBS) was added to a final concentration of 10% v/v. In this colorimetric assay for testing the trypanocidal activity, the compounds were dissolved in DMSO. They were added to 3 × 10^6 parasites/mL at 100 μM final concentrations in RPMI 1640 culture medium without phenol red for 24 h at 28 °C. The final concentration of DMSO was less than 0.1% v/v. […] The MTT assay, which was described previously, determined the viability of the epimastigotes.

[5] = tested on: RAW 264.7 cells; assay: Cytotoxicity MTT assay on RAW 264.7 cells; format: cell-based; conditions: Mus musculus, RAW264.7, in vitro cytotoxicity, murine RAW 264.7 macrophages
Experimental: The compounds under study, dissolved in dimethylsulfoxide (DMSO), were added to the culture media at 10–200 μM. RAW 264.7 cells were cultured in 96-well plates (5 × 10^4 cells per well), and 100 μL of 0.5 mg/mL MTT was added to each well. The DMSO final concentration was less than 0.1% v/v. After incubation for 4 h at 37 °C, the generated water-insoluble formazan dye was dissolved by adding 100 μL of 10% w/v sodium dodecyl sulfate (SDS) in 0.01 M HCl. The plates were further incubated overnight at 37 °C; […] 0.5% of Triton X-100 was added as a positive control. The plates were further incubated overnight at 37 °C, and the optical density of the wells was determined using a microplate reader (Asys Expert Plus©, Asys Hitachi, Vienna, Austria) at 570 nm. Under these conditions, the optical density is directly proportional to the viable cell number in each well. All experiments were performed at least thrice and data were reported as means and their standard deviations from triplicate cultures. Results are reported as IC50 regarding the control (uninfected cells in culture medium)

[6] = tested on: trypomastigote form of T. cruzi; assay: Analysis of ATP levels (CellTiter-Glo); format: cell-based, Trypanosoma cruzi; conditions: trypomastigotes; relative to negative control
Experimental: The CellTiter-Glo® Luminescent Cell Viability Assay (Promega, Fitchburg, WI, USA) was used to detect variations in ATP levels. After incubation, treated parasites were centrifuged (6000 rpm, 10 min, 4 °C) and treated according to the manufacturer’s instructions. Luminescence was determined using the Varioskan™ LUX multi-mode microplate reader (ThermoFisher Scientific). Results were expressed as a percentage relative to the negative control without treatment. Sodium azide (20 mM NaN3 for 3 h) was added as a positive control and benznidazole as a reference treatment. (1) %relative control=luminescence sample/luminescence control∗100

[7] = tested on: Dm28c trypomastigote of T. cruzi; assay: Mitochondrial membrane potential (TMRM incorporation); format: cell-based, Trypanosoma cruzi; conditions: trypomastigotes, compound at IC50, 3 h; compared to negative control
Experimental: Mitochondrial membrane potential (ψm) was determined by the incorporation of the fluorescent probe tetramethylrhodamine methyl ester (TMRM). […] Then, carbonylcyanide-m-chlorophenylhydrazone (CCCP, 10 µM) was added as a control and incubated at 37 °C in humidified air and 5% CO2 for 3 h. Parasites were washed with phosphate-buffered saline (pH 7.4), and suspensions were incubated with TMRM (50 nM) for 15 min. Fluorescence measurements determined the incorporation of the probe at an excitation wavelength of 550 nm and an emission of 590 nm. All the assays were performed in darkness.

[8] = tested on: trypomastigotes of T. cruzi; assay: Plasmatic membrane permeability assay (SYTOX Green) on trypomastigotes; format: cell-based, Trypanosoma cruzi; conditions: compound at IC50, 1 h
Experimental: Late growth-phase trypomastigotes of T. cruzi (3 × 10^6/well) were washed and incubated in the dark with 1 μM SYTOX Green probe (Molecular Probes) in HANKS′ balanced salts solution (HBSS; Sigma-Aldrich) supplemented with 10 mM D-glucose (HBSS + Glu). The test compound was added at IC50, and fluorescence was measured after 1 h of treatment. The maximum permeabilization was obtained with 0.5% Triton X-100. Fluorescence intensity was determined using Varioskan™ LUX multimode microplate reader (ThermoFisher Scientific, Waltham, MA, USA), with excitation and emission wavelengths of 485 and 520 nm, respectively. The following internal controls were used in the evaluation: (i) the background fluorescence of the compound at the respective wavelengths and (ii) the possible interference of DMSO. Samples were tested in triplicate.

Row | Structure (SMILES) | −EpaIII [1] | −EpcIII [1] | Ipa/Ipc [1] | −E1/2 [1] | melting point | effect on plasma membrane permeability (SYTOX Green incorporation) [2] | SI Trypomastigote [3] | IC50 [3] | SI Epimastigote [4] | IC50 [4] | IC50 [5] | ATP levels [6] | effect on mitochondrial membrane potential (ψm) [7] | alteration of plasma membrane permeability (SYTOX Green incorporation) [8]
1 | Cn1c2ccc([N+](=O)[O-])cc2c(=O)n1Cc1ccc(Cl)cc1 [Compound 11, 2-(4-Chlorobenzyl)-1-methyl-5-nitro-1,2-dihydro-3H-indazol-3-one] | 0.99 V | 1.21 V | 0.89 | 1.10 V | 128 to 130 °C | significantly affect permeability | 1.0 | 67.8 ± 1.7 µM | 1.0 | 70.1 ± 2.1 µM | 68.8 ± 1.2 µM |  |  | 
2 | Cn1[nH]c2ccc([N+](=O)[O-])cc2c1=O [Compound 3a] | 0.95 V | 1.13 V | 0.99 | 1.04 V |  | significantly affect permeability | 1.4 | 18.5 ± 0.9 µM | 2.9 | 8.9 ± 1.3 µM | 26.1 ± 0.8 µM |  |  | 
3 | Cn1c2ccc([N+](=O)[O-])cc2c(=O)n1Cc1cccc(Br)c1 [Compound 13, 2-(3-Bromobenzyl)-1-methyl-5-nitro-1,2-dihydro-3H-indazol-3-one] | 0.99 V | 1.13 V | 0.97 | 1.06 V | 149 to 151 °C |  | >4.6 | 43.6 ± 1.1 µM | >2.5 | 79.8 ± 2.3 µM | > 200 µM | significantly reduced ATP levels | statistically significant impact | alter plasma membrane permeability
4 | O=c1[nH]n(-c2ccccc2)c2ccc([N+](=O)[O-])cc12 [Compound 22] | 1.26 V |  | 0.59 | 1.33 V |  |  | >13.1 | 15.3 ± 1.2 µM | >32.3 | 6.2 ± 0.9 µM | > 200 µM | significantly reduced ATP levels | statistically significant impact | alter plasma membrane permeability
5 | Cn1c(=O)c2cc([N+](=O)[O-])ccc2n1C [Compound 3b] | 1.03 V | 1.13 V | 1.00 | 1.08 V |  |  | >4.8 | 41.8 ± 1.1 µM |  | 28.6 ± 2.1 µM | > 200 µM | significantly reduced ATP levels | statistically significant impact | alter plasma membrane permeability
6 | COc1ccc(Cn2c(=O)c3cc([N+](=O)[O-])ccc3n2C)cc1 [Compound 16, 2-(4-Methoxybenzyl)-1-methyl-5-nitro-1,2-dihydro-3H-indazol-3-one] | 1.03 V | 1.15 V | 0.91 | 1.09 V | 139 to 141 °C |  |  | > 100 µM |  | > 100 µM | > 200 µM |  |  | 
7 | Cn1c2ccc([N+](=O)[O-])cc2c(=O)n1Cc1ccccc1Br [Compound 12, 2-(2-Bromobenzyl)-1-methyl-5-nitro-1,2-dihydro-3H-indazol-3-one] | 0.96 V | 1.17 V | 1.00 | 1.07 V | 182 to 184 °C |  | 1.4 | 52.5 ± 1.3 µM | 2.4 | 30.3 ± 1.1 µM | 72.4 ± 1.6 µM |  |  | 
8 | Cn1c2ccc([N+](=O)[O-])cc2c(=O)n1Cc1ccccc1Cl [Compound 9, 2-(2-Chlorobenzyl)-1-methyl-5-nitro-1,2-dihydro-3H-indazol-3-one] | 1.02 V | 1.10 V | 0.96 | 1.06 V | 179 to 181 °C |  | 2.8 | 61.6 ± 1.4 µM | 4.0 | 43.7 ± 2 µM | 176 ± 2.3 µM |  |  | 
